# Reference: patent US9090618B2, “Substituted benzimidazole-type piperidine compounds and uses thereof” (priority 2012, dated 2015)
# Molecular target: human opioid receptor-like (ORL-1) (Homo sapiens (Human), UniProt P41146)
# Test: In vitro ORL-1 receptor [35S]GTPγS functional assay
# Assay type: biochemical
# human opioid receptor-like (ORL-1), sequence (P41146 whole entry): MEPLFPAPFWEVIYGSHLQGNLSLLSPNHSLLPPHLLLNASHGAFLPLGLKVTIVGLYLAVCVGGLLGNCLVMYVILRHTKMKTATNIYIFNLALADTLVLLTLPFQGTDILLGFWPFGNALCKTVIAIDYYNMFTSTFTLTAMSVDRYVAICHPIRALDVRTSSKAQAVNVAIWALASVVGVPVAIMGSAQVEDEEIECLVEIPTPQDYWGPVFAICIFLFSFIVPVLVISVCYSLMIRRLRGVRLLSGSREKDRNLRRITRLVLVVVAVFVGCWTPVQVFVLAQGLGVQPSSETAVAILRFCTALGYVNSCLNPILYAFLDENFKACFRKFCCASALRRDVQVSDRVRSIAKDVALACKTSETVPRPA
row,SMILES,EC50 [nM]
1,"O=C(O)CN1CCC[C@@H]1c1nc2ccccc2n1[C@H]1C[C@H]2CCC[C@@H](C1)N2C1CCCCCCCCC1 [E30c(ii), 2-((R)-2-(1-((1R,3r,5S)-9-cyclodecyl-9-azabicyclo[3.3.1]nonan-3-yl)-1H-benzo[d]imidazol-2-yl)pyrrolidin-1-yl)acetic acid]",336 ± 27
2,"O=C(O)CCN1CC[C@H](c2nc3ccccc3n2[C@H]2C[C@H]3CCC[C@@H](C2)N3[C@@H]2C[C@@H]3CCCC[C@@H](C3)C2)C1 [H32d(ii), 3-((S)-3-(1-((1R,3R,5S)-9-((1R,6S,8s)-bicyclo[4.3.1]decan-8-yl)-9-azabicyclo[3.3.1]nonan-3-yl)-1H-benzo[d]imidazol-2-yl)pyrrolidin-1-yl)propanoic acid]",160 ± 35
3,"O=C(O)CN1CCC(c2nc3ccccc3n2[C@H]2C[C@H]3CCC[C@@H](C2)N3[C@@H]2C[C@@H]3CCCC[C@@H](C3)C2)CC1 [ZA07, 2-(4-(1-((1R,3R,5S)-9-((1R,6S,8s)-bicyclo[4.3.1]decan-8-yl)-9-azabicyclo[3.3.1]nonan-3-yl)-1H-benzo[d]imidazol-2-yl)piperidin-1-yl)acetic acid]",140 ± 17
4,"O=C(O)CCN1CCC(c2nc3ccccc3n2[C@H]2C[C@H]3CCC[C@@H](C2)N3[C@@H]2C[C@@H]3CCCC[C@@H](C3)C2)CC1 [ZA08, 3-(4-(1-((1R,3R,5S)-9-((1R,6S,8s)-bicyclo[4.3.1]decan-8-yl)-9-azabicyclo[3.3.1]nonan-3-yl)-1H-benzo[d]imidazol-2-yl)piperidin-1-yl)propanoic acid]",253 ± 20
5,"COCCOCCOCCN1CCC[C@@H](c2nc3ccccc3n2[C@H]2C[C@H]3CCC[C@@H](C2)N3[C@H]2C[C@@H]3CCC[C@@H](C3)C2)C1 [ZA11, (1R,1′R,3r,3′R,5S,5′S)-3′-(2-((R)-1-(2-(2-(2-methoxyethoxy)ethoxy)ethyl)piperidin-3-yl)-1H-benzo[d]imidazol-1-yl)-9′-aza-3,9′-bi(bicyclo[3.3.1]nonane)]",502 ± 99
6,"COCCOCCOCCN1CCC[C@H](c2nc3ccccc3n2[C@H]2C[C@H]3CCC[C@@H](C2)N3[C@H]2C[C@@H]3CCC[C@@H](C3)C2)C1 [ZA12, (1R,1′R,3r,3′R,5S,5′S)-3′-(2-((S)-1-(2-(2-(2-methoxyethoxy)ethoxy)ethyl)piperidin-3-yl)-1H-benzo[d]imidazol-1-yl)-9′-aza-3,9′-bi(bicyclo[3.3.1]nonane)]",390 ± 34
7,"O=C(O)C1CCN(Cc2nc3ccccc3n2[C@H]2C[C@H]3CCC[C@@H](C2)N3[C@H]2C[C@@H]3CCC[C@@H](C3)C2)CC1 [ZA23, 1-((1-((1R,1′R,3r,3′R,5S,5′S)-[3,9′-bi(9′-azabicyclo[3.3.1]nonan)]-3′-yl)-1H-benzo[d]imidazol-2-yl)methyl)piperidine-4-carboxylic acid]",> 20000
8,"c1ccc2c(c1)nc(-c1nnn[nH]1)n2[C@H]1C[C@H]2CCC[C@@H](C1)N2[C@@H]1C[C@@H]2CCCC[C@@H](C2)C1 [ZA39, 1-((1R,3R,5S)-9-((1R,6S,8r)-bicyclo[4.3.1]decan-8-yl)-9-azabicyclo[3.3.1]nonan-3-yl)-2-(1H-tetrazol-5-yl)-1H-benzo[d]imidazole]",> 20000
9,"COc1cnc(-c2nc3ccccc3n2[C@H]2C[C@H]3CCC[C@@H](C2)N3[C@@H]2C[C@@H]3CCCC[C@@H](C3)C2)cn1 [ZA42, 1-((1R,3R,5S)-9-((1R,6S,8r)-bicyclo[4.3.1]decan-8-yl)-9-azabicyclo[3.3.1]nonan-3-yl)-2-(5-methoxypyrazin-2-yl)-1H-benzo[d]imidazole]",> 20000
10,"COc1cnc(-c2nc3ccccc3n2[C@H]2C[C@H]3CCC[C@@H](C2)N3[C@H]2C[C@@H]3CCC[C@@H](C3)C2)cn1 [ZA63, (1R,1′R,3r,3′R,5S,5′S)-3′-(2-(5-methoxypyrazin-2-yl)-1H-benzo[d]imidazol-1-yl)-9′-aza-3,9′-bi(bicyclo[3.3.1]nonane)]",> 20000
11,"O=c1cc(-c2nc3ccccc3n2[C@H]2C[C@H]3CCC[C@@H](C2)N3[C@@H]2C[C@@H]3CCCC[C@@H](C3)C2)[nH]c(=O)[nH]1 [ZA71, 6-(1-((1R,3R,5S)-9-((1R,6S,8r)-bicyclo[4.3.1]decan-8-yl)-9-azabicyclo[3.3.1]nonan-3-yl)-1H-benzo[d]imidazol-2-yl)pyrimidine-2,4(1H,3H)-dione]",> 20000
